Consider four compounds from paper PMC7827406, “Structure–Activity Relationship (SAR) Study of Spautin-1 to Entail the Discovery of Novel NEK4 Inhibitors” (International Journal of Molecular Sciences, 2021).

Read-outs that look alike come from different tables or passages of the source.

Holding throughout (experiment): biochemical
Common to all, as to set-up: Eurofins KinaseProfiler full panel at Km ATP, residual kinase activity (%) relative to DMSO

In one test the target is PIP5K1a(h) (Homo sapiens, UniProt Q99755). The procedure, abridged: (§1)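 Radiometric kinase activity assays were run with ATP at Km and compounds at 10 µM, and remaining activity (%) was reported. A separate competitive binding screen measured DNA-tagged kinase displaced from immobilized active-site ligands by qPCR, giving percent kinase still bound at 10 µM compound in DMSO.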
Sequence of PIP5K1a(h) (Q99755 whole entry): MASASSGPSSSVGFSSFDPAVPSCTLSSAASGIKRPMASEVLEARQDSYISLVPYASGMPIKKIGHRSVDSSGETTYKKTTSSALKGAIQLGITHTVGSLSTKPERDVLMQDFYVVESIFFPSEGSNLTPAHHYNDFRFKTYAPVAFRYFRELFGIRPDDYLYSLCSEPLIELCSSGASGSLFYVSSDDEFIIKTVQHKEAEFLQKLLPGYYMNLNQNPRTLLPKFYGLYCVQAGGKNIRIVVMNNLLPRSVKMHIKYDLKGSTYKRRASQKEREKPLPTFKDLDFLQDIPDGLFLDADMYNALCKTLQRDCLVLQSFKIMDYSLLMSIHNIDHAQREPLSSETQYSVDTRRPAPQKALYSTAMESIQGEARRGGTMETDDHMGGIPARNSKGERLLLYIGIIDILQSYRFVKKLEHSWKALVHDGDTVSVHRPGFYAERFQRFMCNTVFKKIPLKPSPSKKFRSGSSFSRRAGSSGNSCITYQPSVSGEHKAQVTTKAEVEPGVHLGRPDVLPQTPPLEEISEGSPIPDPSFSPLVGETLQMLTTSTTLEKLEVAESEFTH

In another test the target is MAP4K5(h) (Homo sapiens, UniProt Q9Y4K4). The gist of the method: as §1
Sequence of MAP4K5(h) (Q9Y4K4 whole entry): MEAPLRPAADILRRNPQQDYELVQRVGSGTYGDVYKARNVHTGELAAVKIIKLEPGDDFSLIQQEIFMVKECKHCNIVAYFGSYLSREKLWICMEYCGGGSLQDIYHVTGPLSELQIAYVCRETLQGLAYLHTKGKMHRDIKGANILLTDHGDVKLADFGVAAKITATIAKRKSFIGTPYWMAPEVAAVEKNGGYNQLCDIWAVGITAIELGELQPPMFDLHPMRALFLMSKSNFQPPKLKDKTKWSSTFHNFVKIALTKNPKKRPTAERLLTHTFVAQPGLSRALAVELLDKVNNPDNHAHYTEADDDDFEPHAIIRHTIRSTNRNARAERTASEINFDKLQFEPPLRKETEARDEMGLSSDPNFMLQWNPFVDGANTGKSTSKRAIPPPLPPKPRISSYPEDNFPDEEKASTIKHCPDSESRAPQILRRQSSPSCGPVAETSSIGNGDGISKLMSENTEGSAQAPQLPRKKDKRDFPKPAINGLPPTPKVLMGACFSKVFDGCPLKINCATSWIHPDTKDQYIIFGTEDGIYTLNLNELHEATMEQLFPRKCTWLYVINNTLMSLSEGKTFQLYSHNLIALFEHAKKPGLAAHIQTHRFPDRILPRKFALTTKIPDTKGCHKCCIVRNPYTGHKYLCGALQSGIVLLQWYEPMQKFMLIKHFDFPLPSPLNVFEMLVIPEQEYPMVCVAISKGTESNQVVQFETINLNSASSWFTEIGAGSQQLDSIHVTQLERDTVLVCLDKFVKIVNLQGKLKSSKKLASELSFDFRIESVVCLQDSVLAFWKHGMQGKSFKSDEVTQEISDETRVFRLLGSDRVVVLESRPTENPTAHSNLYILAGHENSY
A further test deals with FGFR3(h) (Homo sapiens, UniProt P22607). The procedure, abridged:
as §1

The target in the next test is T1, ALK4(h) (Homo sapiens, UniProt P36896).
T1 construct: gene ACVR1B
T1 sequence (P36896 1-505): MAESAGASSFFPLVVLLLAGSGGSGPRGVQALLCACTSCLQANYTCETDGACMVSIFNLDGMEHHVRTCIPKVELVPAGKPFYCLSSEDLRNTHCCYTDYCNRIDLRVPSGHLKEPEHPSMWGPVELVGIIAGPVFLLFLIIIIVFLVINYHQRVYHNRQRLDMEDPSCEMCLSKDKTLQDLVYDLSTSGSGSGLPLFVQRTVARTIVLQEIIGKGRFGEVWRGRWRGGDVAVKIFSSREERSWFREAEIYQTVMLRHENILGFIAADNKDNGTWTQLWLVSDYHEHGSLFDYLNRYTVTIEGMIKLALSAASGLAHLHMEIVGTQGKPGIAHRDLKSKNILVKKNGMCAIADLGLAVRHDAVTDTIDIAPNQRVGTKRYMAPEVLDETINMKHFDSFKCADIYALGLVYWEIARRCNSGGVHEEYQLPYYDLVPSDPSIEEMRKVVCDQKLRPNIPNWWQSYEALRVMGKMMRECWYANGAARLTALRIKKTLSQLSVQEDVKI
The procedure, abridged: as §1

The target in a further test is T2, MOK(h) (Homo sapiens, UniProt Q9UQ07).
T2 sequence (Q9UQ07 1-419): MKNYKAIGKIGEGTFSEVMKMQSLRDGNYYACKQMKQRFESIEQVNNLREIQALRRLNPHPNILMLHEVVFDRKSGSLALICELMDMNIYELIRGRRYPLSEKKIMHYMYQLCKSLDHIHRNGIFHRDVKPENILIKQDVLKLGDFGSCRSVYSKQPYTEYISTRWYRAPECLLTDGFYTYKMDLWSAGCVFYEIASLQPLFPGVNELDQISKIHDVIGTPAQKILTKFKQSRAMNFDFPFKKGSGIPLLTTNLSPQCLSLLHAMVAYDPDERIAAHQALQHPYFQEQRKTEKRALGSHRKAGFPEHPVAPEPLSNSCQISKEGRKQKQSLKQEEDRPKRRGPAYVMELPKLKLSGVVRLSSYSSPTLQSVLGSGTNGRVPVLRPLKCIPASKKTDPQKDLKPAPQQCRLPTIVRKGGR
The gist of the method: as §1

For another test, the target named is Plk3(h) (Homo sapiens, UniProt Q9H4B4). The gist of the method: as §1
Sequence of Plk3(h) (Q9H4B4 whole entry): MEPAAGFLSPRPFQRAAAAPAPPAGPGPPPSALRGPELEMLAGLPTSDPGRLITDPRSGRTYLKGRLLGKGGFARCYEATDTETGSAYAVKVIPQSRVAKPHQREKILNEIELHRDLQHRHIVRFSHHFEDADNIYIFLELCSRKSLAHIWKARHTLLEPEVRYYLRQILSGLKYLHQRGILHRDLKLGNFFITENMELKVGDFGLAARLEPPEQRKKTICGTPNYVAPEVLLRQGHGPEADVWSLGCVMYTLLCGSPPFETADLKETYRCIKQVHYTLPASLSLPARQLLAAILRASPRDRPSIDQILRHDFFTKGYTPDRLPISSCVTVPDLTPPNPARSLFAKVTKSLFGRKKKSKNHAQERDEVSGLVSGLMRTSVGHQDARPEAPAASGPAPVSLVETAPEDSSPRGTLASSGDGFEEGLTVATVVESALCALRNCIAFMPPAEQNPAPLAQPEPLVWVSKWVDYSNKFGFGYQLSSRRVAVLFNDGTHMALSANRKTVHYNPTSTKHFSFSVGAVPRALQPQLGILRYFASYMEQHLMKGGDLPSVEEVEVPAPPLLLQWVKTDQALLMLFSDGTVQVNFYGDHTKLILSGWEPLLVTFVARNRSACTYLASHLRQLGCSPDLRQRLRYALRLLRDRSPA
The target of another test is T3, TGFBR1(h) (Homo sapiens, UniProt P36897).
T3 sequence (P36897 1-503): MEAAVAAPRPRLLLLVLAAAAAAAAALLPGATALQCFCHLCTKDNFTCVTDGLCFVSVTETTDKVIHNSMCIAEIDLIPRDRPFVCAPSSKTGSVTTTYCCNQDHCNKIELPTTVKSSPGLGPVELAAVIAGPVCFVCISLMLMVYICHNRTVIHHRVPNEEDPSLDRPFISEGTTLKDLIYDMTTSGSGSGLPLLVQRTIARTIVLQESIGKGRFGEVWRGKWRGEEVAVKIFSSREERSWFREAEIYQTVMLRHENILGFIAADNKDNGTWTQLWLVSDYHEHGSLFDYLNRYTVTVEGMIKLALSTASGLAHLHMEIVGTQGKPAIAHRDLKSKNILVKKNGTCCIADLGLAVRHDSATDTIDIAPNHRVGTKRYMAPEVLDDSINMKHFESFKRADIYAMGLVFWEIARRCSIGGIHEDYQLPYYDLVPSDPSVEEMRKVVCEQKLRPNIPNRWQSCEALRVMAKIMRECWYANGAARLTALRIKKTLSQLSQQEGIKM
The gist of the method:
as §1

The mark [1] stands for this setting: read-out: Residual activity (%) 5at.
Setting [2] is: read-out: Residual activity (%) 5ay.
Where [3] appears, read: read-out: Residual activity (%) 5as.
Where [4] appears, read: read-out: Residual activity (%) Spautin-1 5aa.

Sequence of FGFR3(h) (P22607 whole entry): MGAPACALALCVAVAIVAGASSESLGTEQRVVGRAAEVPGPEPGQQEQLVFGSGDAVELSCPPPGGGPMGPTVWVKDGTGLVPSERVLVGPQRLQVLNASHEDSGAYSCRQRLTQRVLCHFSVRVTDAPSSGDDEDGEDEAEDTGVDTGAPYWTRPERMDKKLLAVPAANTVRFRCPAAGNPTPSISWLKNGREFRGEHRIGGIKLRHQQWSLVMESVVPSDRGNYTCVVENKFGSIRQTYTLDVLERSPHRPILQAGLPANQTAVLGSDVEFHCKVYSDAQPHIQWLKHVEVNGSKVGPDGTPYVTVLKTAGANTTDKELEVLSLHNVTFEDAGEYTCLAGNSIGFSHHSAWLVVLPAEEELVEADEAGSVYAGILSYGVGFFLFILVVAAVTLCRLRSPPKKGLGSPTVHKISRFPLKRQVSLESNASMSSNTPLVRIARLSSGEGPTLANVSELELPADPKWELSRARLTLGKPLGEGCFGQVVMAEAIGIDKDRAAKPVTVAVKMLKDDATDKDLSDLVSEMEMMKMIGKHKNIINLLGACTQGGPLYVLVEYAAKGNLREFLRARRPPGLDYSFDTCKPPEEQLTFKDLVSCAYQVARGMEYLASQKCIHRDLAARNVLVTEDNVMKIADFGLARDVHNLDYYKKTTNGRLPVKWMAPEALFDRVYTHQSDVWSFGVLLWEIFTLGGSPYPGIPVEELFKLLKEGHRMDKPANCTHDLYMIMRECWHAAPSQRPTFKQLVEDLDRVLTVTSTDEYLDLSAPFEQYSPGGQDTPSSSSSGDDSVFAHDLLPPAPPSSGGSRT

Consider `Fc1ccc2ncnc(NCCc3ccc(Cl)cc3)c2c1` [5at, N-[2-(4-Chlorophenyl)Ethyl]-6-Fluoro-4-Quinazolinamine], for which the remaining activity at 10 µM at PIP5K1a(h) (setting [1]) came out at 104%; on MAP4K5(h) (setting [1]) it was 97%; on FGFR3(h) (setting [1]), 99%; on ALK4(h) (setting [1]), 61%; on MOK(h) (setting [1]), 100%; on Plk3(h) (setting [1]) it was 99%. For the same compound, the remaining activity at 10 µM at TGFBR1(h) (setting [1]) is 86%.
For the compound `COc1ccc2ncnc(Nc3cccc(F)c3)c2c1` [5ay, N-(3-Fluorophenyl)-6-Methoxy-4-Quinazolinamine], the remaining activity at 10 µM on PIP5K1a(h) (setting [2]) stood at 101%; on MAP4K5(h) (setting [2]), 80%; on FGFR3(h) (setting [2]), 94%; on ALK4(h) (setting [2]), 73%; on MOK(h) (setting [2]) it was 65%; on Plk3(h) (setting [2]) it was 92%. Also, the remaining activity at 10 µM at TGFBR1(h) (setting [2]) is 94%.
`Fc1ccc(CCNc2ncnc3ccc(F)cc23)cc1` [5as, 6-Fluoro-N-[2-(4-Fluorophenyl)Ethyl]-4-Quinazolinamine]: the remaining activity at 10 µM was found to be 103% at PIP5K1a(h) (setting [3]); 89% at MAP4K5(h) (setting [3]); 108% on FGFR3(h) (setting [3]); 84% on ALK4(h) (setting [3]); 86% at MOK(h) (setting [3]); 94% on Plk3(h) (setting [3]). The remaining activity at 10 µM at TGFBR1(h) (setting [3]) is 97%.
Consider `Fc1ccc(CNc2ncnc3ccc(F)cc23)cc1` [5aa, 6-Fluoro-N-(4-fluorobenzyl)-4-Quinazolinamine], for which the remaining activity at 10 µM came to 104% at PIP5K1a(h) (setting [4]); 92% on MAP4K5(h) (setting [4]); 97% on FGFR3(h) (setting [4]); 121% on ALK4(h) (setting [4]); 89% at MOK(h) (setting [4]); 88% at Plk3(h) (setting [4]). Besides, the remaining activity at 10 µM on TGFBR1(h) (setting [4]) came out at 87%.
